Data from patent US11814364B2, “Pyridine N-oxide derivatives useful as factor XIa inhibitors” (Janssen Pharmaceutica NV, priority 2021, dated 2023).

target: human plasma kallikrein (Homo sapiens, UniProt P03952); test: Kallikrein inhibition FLINT assay with quenched AMC peptide substrate Z-Gly-Pro-Arg-AMC (end point EP or kinetic KIN reads); assay type: biochemical; conditions: kinetic reads at 5 min intervals over 30 min; read-out: Kallikrein (KIN) IC50
Outline: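 Enzyme and compound were preincubated 30 min before adding 50 μM AMC substrate in pH 7.5 Tris/NaCl/CaCl2/BSA/CHAPS buffer. AMC release was read at 30 min endpoint or every 5 min.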

human plasma kallikrein, sequence (P03952 391-638 limits assumed): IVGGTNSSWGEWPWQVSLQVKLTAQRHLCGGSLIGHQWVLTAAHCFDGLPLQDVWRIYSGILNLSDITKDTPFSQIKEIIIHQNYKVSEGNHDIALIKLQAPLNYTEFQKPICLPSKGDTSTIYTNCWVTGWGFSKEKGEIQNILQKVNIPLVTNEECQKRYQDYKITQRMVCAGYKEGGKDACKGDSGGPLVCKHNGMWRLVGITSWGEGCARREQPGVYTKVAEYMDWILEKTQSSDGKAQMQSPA
human plasma kallikrein, sequence (P03952 20-390 partner limits assumed): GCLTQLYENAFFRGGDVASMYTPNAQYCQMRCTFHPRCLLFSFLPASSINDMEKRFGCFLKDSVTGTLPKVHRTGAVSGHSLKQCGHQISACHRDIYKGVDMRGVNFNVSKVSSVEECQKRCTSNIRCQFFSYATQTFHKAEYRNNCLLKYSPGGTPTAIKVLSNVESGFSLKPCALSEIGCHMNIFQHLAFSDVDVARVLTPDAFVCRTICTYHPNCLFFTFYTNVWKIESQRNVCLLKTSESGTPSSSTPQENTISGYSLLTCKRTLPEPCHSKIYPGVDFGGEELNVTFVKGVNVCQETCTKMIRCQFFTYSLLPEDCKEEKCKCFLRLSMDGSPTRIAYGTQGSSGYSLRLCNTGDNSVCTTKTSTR

SMILES | IC50 [µM]
COC(=O)Nc1ccc(-c2cnn(C(CC3CCCO3)c3ccc(-c4c(-n5cnnn5)ccc(Cl)c4F)c[n+]3[O-])c2)cc1 (single isomer, unassigned) [Example P202] | 0.119
Cn1nncc1-c1cnn([C@@H](Cc2ccc(C(F)(F)F)nc2)c2ccc(-c3c(-n4cc(Cl)nn4)ccc(Cl)c3F)c[n+]2[O-])c1 [Example P773] | 4.21
CCOC(=O)C1CC1CC(c1ccc(-c2cc(Cl)ccc2-n2cnnn2)c[n+]1[O-])n1cc(-c2ccc(C(=O)O)cc2)cn1 (stereo not shown) [Example P67] | 0.362
[O-][n+]1cc(-c2c(-n3cnnn3)ccc(Cl)c2F)ccc1[C@@H](CC1CCC1)n1cc(-c2cn(C(F)F)nn2)cn1 [Example P657] | 0.468
NC(=O)C1CC1CC(c1ccc(-c2cc(Cl)ccc2-n2cnnn2)c[n+]1[O-])n1cc(-c2ccc(C(=O)O)cc2)cn1 (stereo not shown) [Example P113] | 0.291
[O-][n+]1cc(-c2c(-n3cnnn3)ccc(Cl)c2F)ccc1[C@@H](CC1CC1)n1cc(-c2c(F)cnn2C(F)F)cn1 [Example P628] | 0.165
CN(C)C(=O)N(C)CC(c1ccc(-c2c(-n3cnnn3)ccc(Cl)c2F)c[n+]1[O-])n1cc(-c2ccnc(C(F)(F)F)c2)cn1 (stereo not shown) [Example P437] | 0.113
O=C(Cc1cnn(CC(c2ccc(-c3c(-n4cnnn4)ccc(Cl)c3F)c[n+]2[O-])n2cc(-c3ccnc(C(F)(F)F)c3)cn2)c1)N1CCCCC1 (stereo not shown) [Example P473] | 0.104
O=C(O)c1ccc(-c2cnn(C(CC3CC3)c3ccc(-c4c(C(F)F)ccc(Cl)c4F)c[n+]3[O-])c2)cc1 (single isomer, unassigned) [Example Q13] | 0.0971
NC(=O)c1ccc(-c2cnn(C(Cc3nccs3)c3ccc(-c4c(-n5cc(C(F)(F)F)nn5)ccc(Cl)c4F)c[n+]3[O-])c2)cc1F (single isomer, unassigned) [Example P942] | 0.249
[O-][n+]1cc(-c2c(-n3cnnn3)ccc(Cl)c2F)ccc1C(Cn1cc(F)c(COC(F)F)n1)n1cc(-c2ccnc(C(F)(F)F)c2)cn1 (single isomer, unassigned) [Example P571] | 0.134
Cn1nnc(F)c1-c1cnn(C(CCOC(F)F)c2ccc(-c3c(-c4cnco4)ccc(Cl)c3F)c[n+]2[O-])c1 (stereo not shown) [Example P846] | 0.238
O=C(O)c1ccc(-c2cnn(C(CC(=O)N3CCNCC3)c3ccc(-c4cc(Cl)ccc4-n4cnnn4)c[n+]3[O-])c2)cc1 (stereo not shown) [Example P90] | 0.08
[O-][n+]1cc(-c2c(-n3cnnn3)ccc(Cl)c2F)ccc1[C@@H](CC1CC1)n1cc(-c2nnn(C(F)F)c2Cl)cn1 [Example P604] | 0.29
O=C(C1CC1CC(c1ccc(-c2c(-n3cnnn3)ccc(Cl)c2F)c[n+]1[O-])n1cc(-c2ccccc2)cn1)N1CCC(c2ccccc2)C1 (stereo not shown) [Example P196] | 0.995
O=C(O)C1CCN(C(=O)C2CC2CC(c2ccc(-c3c(-n4cnnn4)ccc(Cl)c3F)c[n+]2[O-])n2cc(-c3ccccc3)cn2)CC1 (stereo not shown) [Example P213] | 0.491
CN(CC(c1ccc(-c2c(-n3cnnn3)ccc(Cl)c2F)c[n+]1[O-])n1cc(-c2ccncc2)cn1)C(=O)CC(=O)N1CCCCC1 (stereo not shown) [Example P322] | 0.0834
COC(=O)CC(c1ccc(-c2c(-n3cc(C(F)(F)F)nn3)ccc(Cl)c2F)c[n+]1[O-])n1cc(-c2ccc(C(=O)O)c(F)c2)cn1 (stereo not shown) [Example P890] | 0.105
[O-][n+]1cc(-c2c(-n3cnnn3)ccc(Cl)c2F)ccc1C(CC1CC1)n1cc(-c2cnn(C(F)(F)F)c2)cn1 (stereo not shown) [Example P708] | 0.658
NC(=O)c1scc(-c2cnn(C(CC3CC3)c3ccc(-c4c(-n5cnnn5)ccc(Cl)c4F)c[n+]3[O-])c2)c1F (single isomer, unassigned) [Example P954] | 0.788
[O-][n+]1cc(-c2c(C(F)F)ccc(Cl)c2F)ccc1C(Cn1cc(F)cn1)n1cc(-c2ccnc(C(F)(F)F)c2)cn1 (single isomer, unassigned) [Example Q23] | 0.0804
CC1CC1CC(c1ccc(-c2c(-n3cnnn3)ccc(Cl)c2F)c[n+]1[O-])n1cc(-c2ncnn2C(F)F)cn1 (stereo not shown) [Example P764] | > 0.1

Further compounds by falling IC50, results first:

IC50 [µM] | SMILES
0.0784 | [O-][n+]1cc(-c2cc(Cl)ccc2-n2cnnn2)ccc1C(Cc1ccc(Cl)cc1)n1cc(-c2ccc(F)nc2)cn1 (stereo not shown) [Example P173]
0.0743 | Cn1nnc(F)c1-c1cnn([C@H](CCOC(F)F)c2ccc(-c3c(-n4cc(C(F)(F)F)nn4)ccc(Cl)c3F)c[n+]2[O-])c1 [Example P754]
0.0558 | Cn1ncnc1-c1cnn([C@H](Cc2ccn(C(F)F)n2)c2ccc(-c3c(-n4cc(Cl)nn4)ccc(Cl)c3F)c[n+]2[O-])c1 [Example P794]
0.0517 | Nc1ccc(-c2cnn(C(Cn3cc(CC(=O)N4CCCCC4)cn3)c3ccc(-c4c(-n5cnnn5)ccc(Cl)c4F)c[n+]3[O-])c2)c(F)n1 (stereo not shown) [Example P471]
0.0483 | [O-][n+]1cc(-c2c(-n3cc(C(F)(F)F)nn3)ccc(Cl)c2F)ccc1C(Cc1ccn(C(F)F)n1)n1cc(-c2ncnn2C(F)F)cn1 (single isomer, unassigned) [Example P837]
0.0468 | CCn1ncc(-c2cnn(C(CC3CC3)c3cc(OC)c(-c4c(-n5cnnn5)ccc(Cl)c4F)c[n+]3[O-])c2)cc1=O (stereo not shown) [Example P170]
0.0459 | [O-][n+]1cc(-c2cc(Cl)ccc2-n2cnnn2)ccc1C(Cc1ccc(Cl)cc1)n1cc(-c2ccnc(C(F)(F)F)c2)cn1 (stereo not shown) [Example P250]
0.0287 | NC(=O)c1ccc(-c2cnn([C@H](CCOC(F)F)c3ccc(-c4cc(Cl)ccc4-n4cc(C(F)(F)F)nn4)c[n+]3[O-])c2)cc1F [Example P859]
0.0262 | Cn1ncc(-c2cnn(C(Cc3ccc(F)cc3)c3ccc(-c4c(-n5cnnn5)ccc(Cl)c4F)c[n+]3[O-])c2)cc1=O (stereo not shown) [Example P116]
0.0221 | [O-][n+]1cc(-c2c(-n3cnnn3)ccc(Cl)c2F)ccc1C(Cc1nn(CC(F)(F)F)cc1F)n1cc(-c2ccnc(C(F)(F)F)c2)cn1 (stereo not shown) [Example P741]
0.0162 | Cc1cc(-c2cnn(C(Cn3cccn3)c3ccc(-c4c(-n5cnnn5)ccc(Cl)c4F)c[n+]3[O-])c2)ccn1 (stereo not shown) [Example P285]
0.0131 | COc1cc(C(CC2CC2)n2cc(-c3sc(C(N)=O)cc3C)cn2)[n+]([O-])cc1-c1cc(Cl)ccc1-n1cc(C(F)(F)F)nn1 (single isomer, unassigned) [Example P958]
0.0078 | O=C(O)c1ccc(-c2cnn(C(Cc3ccc(-c4ccccc4)cc3)c3ccc(-c4cc(Cl)ccc4-n4cnnn4)c[n+]3[O-])c2)cc1 (stereo not shown) [Example P62]
0.0049 | Nc1nc(Cl)c(-c2cnn(C(CC3CC3)c3ccc(-c4c(-n5cnnn5)ccc(Cl)c4F)c[n+]3[O-])c2)s1 (stereo not shown) [Example P624]
0.004 | [O-][n+]1cc(-c2c(-n3cnnn3)ccc(Cl)c2F)ccc1[C@@H](Cc1ccc(F)cc1)n1cc(-c2cnnn2C(F)F)cn1 [Example P599]
0.0025 | NC(=O)c1ccc(-c2cnn(C(Cc3ccn(C(F)F)n3)c3ccc(-c4c(-n5cc(Cl)nn5)ccc(Cl)c4F)c[n+]3[O-])c2)cc1F (stereo not shown) [Example P894]
0.0017 | NC(=O)c1ccn(CC(c2ccc(-c3c(-n4cnnn4)ccc(Cl)c3F)c[n+]2[O-])n2cc(-c3ccncc3)cn2)n1 (stereo not shown) [Example P443]
0.0004 | NC(=O)c1ccc(-c2cnn(C(Cc3ccn(C(F)F)n3)c3ccc(-c4c(-n5cnnn5)ccc(Cl)c4F)c[n+]3[O-])c2)cc1F (single isomer, unassigned) [Example P933]
